Laboratory results: patent US8535897B2, “Assays for non-apoptotic cell death and uses thereof” (The Trustees of Columbia University in the City of New York, priority 2006, dated 2013)

What was measured:
BJ-TERT/LT/ST/RASV12 = experiment: Alamar blue viability assay, engineered tumor cells; format: cell-based, human
Description: Erastin was tested in a dilution series in five engineered cell lines derived from primary BJ fibroblasts. Cells were incubated with erastin for two days at 37° C. with 5% CO2, Alamar blue was added (10% final volume) and fluorescence measured (530 nm ex, 590 nm em). Cell lines harboring oncogenic RAS (triangles, circles and x's) were sensitive to erastin, but isogenic lines lacking oncogenic RAS (squares and diamonds) were resistant. Two different clones of engineered tumor cells (circles and triangles) responded similarly.
(a) BJ-TERT/LT/ST/RAS^V12 cells were treated with 9 μM erastin A1 for the indicated length of time, and the number of viable cells determined. (b) 1,000 BJ-TERT/LT/ST/RAS^V12 cells/well in 384-well plates were treated with erastin for 2 d, then alamar blue was added to a final concentration of 10% and the plates were incubated for 16 h. Red fluorescence resulting from reduction of alamar blue was detected on a Victor3 platereader. The percent growth inhibition is shown; error bars represent one SD. […] (c) TEM images (20,000× magnification) of BJ-TERT/LT/ST/RAS^V12 mitochondria after cells were treated with nothing, erastin (37 μM for 10 h) or staurosporine (STS, 1 μM for 5 h), and phase-contrast photograph of BJ-TERT/LT/ST/RAS^V12 cells 24 h after 9 μM erastin A1 treatment is also shown to indicate that even after cell death, nuclei are intact. (d) Anti-oxidants suppress erastin-induced death. BJ-TERT/LT/ST/RAS^V12 cells were treated as indicated and photographed. (e) The number of viable cells was quantified under each condition using a hemacytometer. (f) Iron chelators suppress erastin-induced cell death. Cells were seeded in 384-well plates (6,000 cells/well) and treated with 2-fold dilution series of erastin in the presence of 100 μM desferrioxamine mesylate (DFOM), 100 μM of iron chelator 1a, 100 μM of iron chelator 2, 10 μM or 1 μM of iron chelator 311. After 24 h, alamar blue was added and cell viability assayed. (g, h) Erastin-induced formation of oxidative species. BJ-TERT/LT/ST/RAS^V12 (shown in histogram plots, and in line graph as dark diamonds) or BJ-TERT cells (shown in line graph only, light circles) were treated with 4.6-μM erastin A1 and the level of intracellular oxidative species determined. (i, j) STS, but not erastin, induces PARP1 cleavage (red bands at top) in BJ-TERT/LT/ST/RAS^V12 cells and in A673, HT1080 and HeLa cells. NS: non-specific band. […] Cells were treated with STS or erastin, separated into mitochondrial and cytosolic fractions, and probed for cytochrome c (lower red band) and total VDAC (middle green band, pan-VDAC antibody). (1) Caspase-3 is not cleaved in response to erastin. Cells were treated as indicated and probed with an anti-caspase-3 antibody that recognizes both the full length and the cleaved, active form (lower band). […] ATP levels were measured, viable cells determined by Trypan Blue exclusion and ATP per viable cell determined. Abbreviations: DMSO, dimethylsulfoxide; BHT, butylated hydroxytoluene; TOC, alpha-tocopherol; ERA, erastin A1; CAR, beta-carotene; STS, staurosprine.
(a) Calu-1 lung carcinoma cells harboring oncogenic KRAS were infected with lentivirus containing shRNAs targeting KRAS or GFP. Sequences of shRNAs are indicated by starting nucleotide (nt) in the KRAS mRNA coding sequence. Cells were treated with erastin and viability measured by Trypan Blue exclusion. (b) Knockdown of KRAS was confirmed by western blot. (c,d) A673 cells harboring oncogenic BRAF were infected with lentiviral shRNAs targeting BRAF exon 5 (c) or the 5′ UTR (d), luciferase (LUC)(c) or GFP (d). Cells were treated with erastin and viability measured using Alamar Blue (c) and Trypan Blue (d). (e) Knockdown of BRAF was confirmed by western blot. […] BJ-TERT/LT/ST/RAS^V12 cells were treated with erastin alone or in with a MEK inhibitor U0126 (20 μM), MEK inhibitor I (10 μM) or MEK 1/2 inhibitor (50 μM). After 48 h, viability was determined using Trypan Blue. […]

A673 = experiment: Response of tumor cell lines to erastin (dose-response); format: cell-based, human
Description: (§1) In certain aspects, the invention provides that erastin is lethal to tumor cells with activating mutations in proteins downstream of RAS proteins. Dose-response of 30 tumor cell lines to erastin was measured, and at least 50% inhibition of cell viability in 19 of the 30 tumor cell lines was formed. Numerous sarcoma-derived tumor cell lines were sensitive to erastin, consistent with the fact that erastin was discovered in an engineered tumor cell line created from human fibroblasts. Non-limiting examples include, HT1080 fibrosarcoma cells. HT1080 fibrosarcoma cells, which have a known activating mutation in NRAS, (Plattner, R. et al. Differential contribution of the ERK and JNK mitogen-activated protein kinase cascades to Ras transformation of HT1080 fibrosarcoma and DLD-1 colon carcinoma cells. Oncogene. 18: 1807-17 (1999), were quite sensitive to erastin. In order to determine whether RAS-activated signaling was modulated in cell lines that respond to erastin, the phosphorylation status of ERK1/2 in 12 sarcoma cell lines with a range of sensitivities to erastin was evaluated. In certain aspects, the invention provides a non-zero correlation, such as for example, a correlation coefficient of 0.41, between ERK1/2 phosphorylation status and erastin sensitivity in these cell lines.
(§2) Given that oncogenic RAS activates at least four downstream pathways, analysis was performed to identify which downstream effects were necessary for erastin sensitivity. In certain embodiments, the invention provides that erastin inhibits growth and kills genuine tumor cells with RAS mutations. In other embodiments, the invention provides measures of the dose-response of 29 tumor cell lines to erastin, wherein there is at least 50% inhibition of viability in 18 of the cell lines (Table 4). Numerous sarcoma-derived tumor cell lines were sensitive to erastin, consistent with the fact that erastin was discovered in an engineered tumor cell line created from human fibroblasts.

BJEH = experiment: as above; format: cell-based, human; conditions: BJ-TERT
Description: as §1, §2

BJELR = experiment: as above; format: cell-based, human; conditions: BJ-TERT/LT/ST/RASV12
Description: as §1, §2

HT1080 = experiment: as above; format: cell-based, human; conditions: HT 1080
Description: as §1, §2

several tumor cell lines = experiment: Potency in several tumor cell lines; format: cell-based

SMILES: CCOc1ccccc1-n1c(C(C)N2CCN(C(=O)COc3ccc(Cl)cc3)CC2)nc2ccccc2c1=O (stereo not shown) [erastin]
- RAS-selective lethality (BJ-TERT/LT/ST/RASV12): at least 16 fold
- RAS selectivity (BJ-TERT/LT/ST/RASV12; BJ-TERT/LT/ST vs BJ-TERT/LT/ST/RASV12): >16
- Erastin Sensitivity (maximum killing induced by erastin) (A673): 0.54
- Erastin Sensitivity (maximum killing induced by erastin) (BJEH): 0.22
- Erastin Sensitivity (maximum killing induced by erastin) (BJELR): 1.00
- Erastin Sensitivity (maximum killing induced by erastin) (HT1080): 0.98
- potency (several tumor cell lines): 1000 to 5000 nM
